Laboratory results published in US20180118747A1, “METHOD OF ISOLATING THEACRINE AND COMPOSITION COMPRISING THEACRINE” (ThermoLife International, LLC, priority 2017, published 2018).

Assay: Effects of ingested theacrine versus fused theacrine as reported by human subjects
Assay type: in vivo
Settings: oral ingestion
Description: Typically, theacrine's effects in human subjects start after 30 minutes of ingestion and last 6-8 hours.

For Cn1c(=O)c2c(n(C)c1=O)n(C)c(=O)n2C [theacrine, 1,3,7,9-tetramethyluric acid], the “start of theacrine's effects after ingestion” value was 30 min, the “duration of theacrine's effects” value (same amount of theacrine in both forms) was 6 to 8 h and the “"crash" felt when the theacrine level falls” value (subject-reported) was “feels a “crash.””.
